Source: ChEMBL document CHEMBL5653631, “A Potent and Selective ULK1 Inhibitor Suppresses Autophagy and Sensitizes Cancer Cells to Nutrient Stress” (iScience, 2018)

Legend:
[1] = molecular target: MAP kinase-activated protein kinase 3 (Homo sapiens) (UniProt Q16644); experiment: Inhibition of human recombinant MAPKAPK3 at 500 nM in presence of ATP by radiometric assay relative to control
[2] = molecular target: Vascular endothelial growth factor receptor 1 (Homo sapiens) (UniProt P17948); experiment: Inhibition of human recombinant FLT1 at 500 nM related to control ULK1
[3] = molecular target: G protein-coupled receptor kinase 6 (Homo sapiens) (UniProt P43250); experiment: Inhibition of human recombinant GPRK6 at 500 nM related to control ULK1
[4] = molecular target: Mitogen-activated protein kinase kinase kinase 9 (Homo sapiens) (UniProt P80192); experiment: Inhibition of human recombinant MLK1 at 500 nM related to control ULK1
[5] = molecular target: Serine/threonine-protein kinase PRP4 homolog (Homo sapiens) (UniProt Q13523); experiment: Inhibition of human recombinant PRP4 at 500 nM related to control ULK1
[6] = molecular target: Tau-tubulin kinase 1 (Homo sapiens) (UniProt Q5TCY1); experiment: Inhibition of human recombinant TTBK1 at 500 nM related to control ULK1
[7] = molecular target: MAP kinase-interacting serine/threonine-protein kinase 2 (Homo sapiens, UniProt Q9HBH9); experiment: Inhibition of human recombinant MNK2 at 15 nM in presence of ATP by radiometric assay relative to control
[8] = molecular target: Casein kinase I isoform gamma-2 (Homo sapiens) (UniProt P78368); experiment: Inhibition of human recombinant CK1g2 at 15 nM related to control ULK1
[9] = molecular target: T1, Mitogen-activated protein kinase kinase kinase 5 (Homo sapiens) (UniProt Q99683); experiment: Inhibition of human recombinant MAP3K5 at 15 nM related to control ULK1
T1 sequence (whole entry): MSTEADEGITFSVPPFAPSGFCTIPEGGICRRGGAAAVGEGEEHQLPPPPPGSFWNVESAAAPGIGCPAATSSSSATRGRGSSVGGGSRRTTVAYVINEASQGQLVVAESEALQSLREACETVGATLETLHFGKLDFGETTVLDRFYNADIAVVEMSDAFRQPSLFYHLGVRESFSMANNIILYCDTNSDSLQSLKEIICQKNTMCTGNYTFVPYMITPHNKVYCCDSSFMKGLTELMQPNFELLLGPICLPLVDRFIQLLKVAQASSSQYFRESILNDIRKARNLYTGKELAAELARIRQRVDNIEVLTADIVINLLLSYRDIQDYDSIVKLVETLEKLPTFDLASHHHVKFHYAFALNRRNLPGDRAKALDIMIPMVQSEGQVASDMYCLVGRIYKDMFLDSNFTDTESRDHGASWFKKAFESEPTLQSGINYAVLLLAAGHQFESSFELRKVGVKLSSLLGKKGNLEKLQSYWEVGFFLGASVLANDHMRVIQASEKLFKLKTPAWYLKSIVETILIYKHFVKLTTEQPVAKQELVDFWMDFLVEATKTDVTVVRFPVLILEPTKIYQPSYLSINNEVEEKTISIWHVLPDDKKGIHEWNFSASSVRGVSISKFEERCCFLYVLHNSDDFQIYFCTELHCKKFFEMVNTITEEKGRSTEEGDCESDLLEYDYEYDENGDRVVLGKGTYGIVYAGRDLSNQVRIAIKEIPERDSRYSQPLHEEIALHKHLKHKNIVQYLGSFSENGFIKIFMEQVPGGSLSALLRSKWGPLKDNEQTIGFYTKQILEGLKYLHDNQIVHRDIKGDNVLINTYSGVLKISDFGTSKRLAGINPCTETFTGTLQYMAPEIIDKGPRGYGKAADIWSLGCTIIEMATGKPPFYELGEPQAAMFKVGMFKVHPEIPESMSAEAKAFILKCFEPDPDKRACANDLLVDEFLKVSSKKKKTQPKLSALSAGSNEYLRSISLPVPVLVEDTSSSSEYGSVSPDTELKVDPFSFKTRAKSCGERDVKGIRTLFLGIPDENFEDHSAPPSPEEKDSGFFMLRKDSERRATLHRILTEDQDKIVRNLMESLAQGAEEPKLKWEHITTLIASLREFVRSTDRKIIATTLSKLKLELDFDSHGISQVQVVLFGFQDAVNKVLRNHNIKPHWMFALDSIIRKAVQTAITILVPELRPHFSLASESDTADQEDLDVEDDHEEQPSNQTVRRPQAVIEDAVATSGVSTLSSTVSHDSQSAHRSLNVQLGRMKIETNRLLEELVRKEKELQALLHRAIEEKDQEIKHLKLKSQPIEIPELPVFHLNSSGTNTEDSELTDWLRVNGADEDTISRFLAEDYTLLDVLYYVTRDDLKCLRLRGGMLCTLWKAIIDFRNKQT

[10] = molecular target: SRSF protein kinase 1 (Homo sapiens) (UniProt Q96SB4); experiment: Inhibition of human recombinant SRPK1 at 15 nM related to control ULK1
[11] = molecular target: SRSF protein kinase 1 (Homo sapiens) (UniProt Q96SB4); experiment: Inhibition of human recombinant SRPK1 at 40 nM in presence of ATP by radiometric assay relative to control
[12] = molecular target: T2, Serine/threonine-protein kinase DCLK2 (Homo sapiens) (UniProt Q8N568); experiment: Inhibition of human recombinant DCAMKL2 at 40 nM related to control ULK1
T2 sequence (whole entry): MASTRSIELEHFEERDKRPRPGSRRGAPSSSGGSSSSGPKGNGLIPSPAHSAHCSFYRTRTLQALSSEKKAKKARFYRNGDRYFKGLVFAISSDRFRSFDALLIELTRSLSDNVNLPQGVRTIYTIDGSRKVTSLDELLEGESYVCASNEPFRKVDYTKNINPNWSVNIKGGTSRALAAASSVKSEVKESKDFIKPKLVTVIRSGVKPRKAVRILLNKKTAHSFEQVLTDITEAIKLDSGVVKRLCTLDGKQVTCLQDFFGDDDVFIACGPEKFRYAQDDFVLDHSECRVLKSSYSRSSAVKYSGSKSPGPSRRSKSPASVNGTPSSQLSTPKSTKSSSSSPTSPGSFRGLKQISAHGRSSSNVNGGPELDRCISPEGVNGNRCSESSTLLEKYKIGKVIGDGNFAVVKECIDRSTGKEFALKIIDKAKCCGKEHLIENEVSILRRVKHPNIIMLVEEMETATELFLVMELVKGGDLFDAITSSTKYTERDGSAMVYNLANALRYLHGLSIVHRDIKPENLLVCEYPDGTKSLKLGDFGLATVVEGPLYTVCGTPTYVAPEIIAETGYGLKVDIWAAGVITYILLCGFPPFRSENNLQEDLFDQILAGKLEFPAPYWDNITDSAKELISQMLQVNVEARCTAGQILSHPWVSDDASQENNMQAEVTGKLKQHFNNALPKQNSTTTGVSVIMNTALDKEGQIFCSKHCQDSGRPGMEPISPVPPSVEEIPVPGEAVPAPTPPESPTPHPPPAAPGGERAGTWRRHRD

[13] = molecular target: Tyrosine-protein kinase SYK (Homo sapiens) (UniProt P43405); experiment: Inhibition of human recombinant SYK at 40 nM related to control ULK1

Sequence of SRSF protein kinase 1 (Homo sapiens) (Q96SB4 whole entry): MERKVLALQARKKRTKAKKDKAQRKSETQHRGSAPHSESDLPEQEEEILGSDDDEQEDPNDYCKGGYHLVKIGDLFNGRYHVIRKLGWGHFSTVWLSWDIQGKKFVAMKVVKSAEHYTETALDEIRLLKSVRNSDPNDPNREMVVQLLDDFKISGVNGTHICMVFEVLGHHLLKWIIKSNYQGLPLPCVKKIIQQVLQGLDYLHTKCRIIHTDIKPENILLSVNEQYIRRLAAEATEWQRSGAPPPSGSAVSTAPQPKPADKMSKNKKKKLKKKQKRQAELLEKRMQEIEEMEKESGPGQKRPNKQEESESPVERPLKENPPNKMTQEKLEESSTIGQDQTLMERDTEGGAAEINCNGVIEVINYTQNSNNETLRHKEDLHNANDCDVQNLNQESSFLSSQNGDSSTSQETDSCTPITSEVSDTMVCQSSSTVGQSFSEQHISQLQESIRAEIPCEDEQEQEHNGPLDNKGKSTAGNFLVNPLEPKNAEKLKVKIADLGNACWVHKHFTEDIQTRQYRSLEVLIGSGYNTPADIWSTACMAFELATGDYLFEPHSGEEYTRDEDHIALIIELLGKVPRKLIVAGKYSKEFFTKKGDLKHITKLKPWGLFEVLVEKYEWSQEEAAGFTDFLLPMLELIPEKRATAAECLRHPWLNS
Sequence of Casein kinase I isoform gamma-2 (Homo sapiens) (P78368 whole entry, looked up, canonical isoform): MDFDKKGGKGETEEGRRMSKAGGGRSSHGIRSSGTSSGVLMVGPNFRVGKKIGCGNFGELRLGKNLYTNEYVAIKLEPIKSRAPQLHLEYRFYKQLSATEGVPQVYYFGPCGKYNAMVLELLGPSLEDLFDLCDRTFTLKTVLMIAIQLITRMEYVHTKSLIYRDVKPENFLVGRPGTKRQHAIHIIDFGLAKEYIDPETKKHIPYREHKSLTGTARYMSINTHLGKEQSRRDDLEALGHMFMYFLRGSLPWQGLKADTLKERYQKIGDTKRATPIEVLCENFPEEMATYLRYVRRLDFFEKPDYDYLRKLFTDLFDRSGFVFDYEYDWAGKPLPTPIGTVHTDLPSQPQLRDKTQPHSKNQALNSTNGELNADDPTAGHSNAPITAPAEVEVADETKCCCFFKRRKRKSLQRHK
Sequence of G protein-coupled receptor kinase 6 (Homo sapiens) (P43250 whole entry, looked up): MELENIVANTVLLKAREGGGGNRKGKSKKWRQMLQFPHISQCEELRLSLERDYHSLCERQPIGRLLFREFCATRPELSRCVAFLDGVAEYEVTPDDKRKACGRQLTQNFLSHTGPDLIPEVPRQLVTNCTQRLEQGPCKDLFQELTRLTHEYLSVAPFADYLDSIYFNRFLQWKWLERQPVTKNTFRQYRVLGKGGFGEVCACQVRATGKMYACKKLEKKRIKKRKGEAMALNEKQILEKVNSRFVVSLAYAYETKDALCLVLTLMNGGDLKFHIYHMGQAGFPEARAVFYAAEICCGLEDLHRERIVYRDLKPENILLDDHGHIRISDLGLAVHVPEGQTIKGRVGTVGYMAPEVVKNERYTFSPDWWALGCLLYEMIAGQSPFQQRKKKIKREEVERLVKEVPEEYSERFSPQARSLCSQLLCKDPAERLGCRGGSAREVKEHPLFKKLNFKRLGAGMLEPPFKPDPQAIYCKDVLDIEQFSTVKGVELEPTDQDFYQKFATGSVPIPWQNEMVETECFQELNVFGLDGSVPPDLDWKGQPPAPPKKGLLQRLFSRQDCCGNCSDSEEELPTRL
Sequence of Tau-tubulin kinase 1 (Homo sapiens) (Q5TCY1 whole entry): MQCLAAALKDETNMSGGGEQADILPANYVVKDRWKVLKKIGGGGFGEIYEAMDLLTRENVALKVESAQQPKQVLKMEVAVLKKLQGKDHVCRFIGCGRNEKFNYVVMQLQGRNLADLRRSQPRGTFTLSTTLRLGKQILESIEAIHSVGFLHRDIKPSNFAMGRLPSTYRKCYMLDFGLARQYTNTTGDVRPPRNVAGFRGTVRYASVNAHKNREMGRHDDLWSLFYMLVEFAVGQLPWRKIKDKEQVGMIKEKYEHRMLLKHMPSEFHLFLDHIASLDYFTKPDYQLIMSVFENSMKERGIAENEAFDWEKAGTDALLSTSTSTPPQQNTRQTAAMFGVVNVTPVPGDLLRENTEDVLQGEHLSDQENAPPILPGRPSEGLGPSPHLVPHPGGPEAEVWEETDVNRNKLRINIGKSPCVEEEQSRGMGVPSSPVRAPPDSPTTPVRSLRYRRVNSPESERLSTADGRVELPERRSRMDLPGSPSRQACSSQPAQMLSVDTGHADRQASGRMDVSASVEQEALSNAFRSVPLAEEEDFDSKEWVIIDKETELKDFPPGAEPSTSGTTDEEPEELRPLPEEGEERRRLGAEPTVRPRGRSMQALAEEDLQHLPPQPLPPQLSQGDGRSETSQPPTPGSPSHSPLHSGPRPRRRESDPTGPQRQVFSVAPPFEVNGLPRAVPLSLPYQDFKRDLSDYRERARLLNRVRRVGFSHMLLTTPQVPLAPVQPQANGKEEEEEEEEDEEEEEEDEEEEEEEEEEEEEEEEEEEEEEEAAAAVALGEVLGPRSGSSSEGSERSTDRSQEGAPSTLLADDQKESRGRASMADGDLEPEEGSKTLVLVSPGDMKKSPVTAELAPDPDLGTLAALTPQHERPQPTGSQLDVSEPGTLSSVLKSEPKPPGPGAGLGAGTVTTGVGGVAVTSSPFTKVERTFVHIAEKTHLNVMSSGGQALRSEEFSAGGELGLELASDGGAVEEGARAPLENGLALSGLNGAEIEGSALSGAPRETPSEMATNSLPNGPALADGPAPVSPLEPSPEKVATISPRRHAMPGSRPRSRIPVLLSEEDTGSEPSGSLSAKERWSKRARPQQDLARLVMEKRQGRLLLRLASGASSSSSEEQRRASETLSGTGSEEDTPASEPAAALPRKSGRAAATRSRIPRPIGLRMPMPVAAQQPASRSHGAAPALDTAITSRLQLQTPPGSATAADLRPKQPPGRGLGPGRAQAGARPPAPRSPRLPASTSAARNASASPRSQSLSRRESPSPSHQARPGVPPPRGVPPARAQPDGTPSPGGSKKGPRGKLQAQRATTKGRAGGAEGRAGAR
Sequence of Mitogen-activated protein kinase kinase kinase 9 (Homo sapiens) (P80192 whole entry, looked up): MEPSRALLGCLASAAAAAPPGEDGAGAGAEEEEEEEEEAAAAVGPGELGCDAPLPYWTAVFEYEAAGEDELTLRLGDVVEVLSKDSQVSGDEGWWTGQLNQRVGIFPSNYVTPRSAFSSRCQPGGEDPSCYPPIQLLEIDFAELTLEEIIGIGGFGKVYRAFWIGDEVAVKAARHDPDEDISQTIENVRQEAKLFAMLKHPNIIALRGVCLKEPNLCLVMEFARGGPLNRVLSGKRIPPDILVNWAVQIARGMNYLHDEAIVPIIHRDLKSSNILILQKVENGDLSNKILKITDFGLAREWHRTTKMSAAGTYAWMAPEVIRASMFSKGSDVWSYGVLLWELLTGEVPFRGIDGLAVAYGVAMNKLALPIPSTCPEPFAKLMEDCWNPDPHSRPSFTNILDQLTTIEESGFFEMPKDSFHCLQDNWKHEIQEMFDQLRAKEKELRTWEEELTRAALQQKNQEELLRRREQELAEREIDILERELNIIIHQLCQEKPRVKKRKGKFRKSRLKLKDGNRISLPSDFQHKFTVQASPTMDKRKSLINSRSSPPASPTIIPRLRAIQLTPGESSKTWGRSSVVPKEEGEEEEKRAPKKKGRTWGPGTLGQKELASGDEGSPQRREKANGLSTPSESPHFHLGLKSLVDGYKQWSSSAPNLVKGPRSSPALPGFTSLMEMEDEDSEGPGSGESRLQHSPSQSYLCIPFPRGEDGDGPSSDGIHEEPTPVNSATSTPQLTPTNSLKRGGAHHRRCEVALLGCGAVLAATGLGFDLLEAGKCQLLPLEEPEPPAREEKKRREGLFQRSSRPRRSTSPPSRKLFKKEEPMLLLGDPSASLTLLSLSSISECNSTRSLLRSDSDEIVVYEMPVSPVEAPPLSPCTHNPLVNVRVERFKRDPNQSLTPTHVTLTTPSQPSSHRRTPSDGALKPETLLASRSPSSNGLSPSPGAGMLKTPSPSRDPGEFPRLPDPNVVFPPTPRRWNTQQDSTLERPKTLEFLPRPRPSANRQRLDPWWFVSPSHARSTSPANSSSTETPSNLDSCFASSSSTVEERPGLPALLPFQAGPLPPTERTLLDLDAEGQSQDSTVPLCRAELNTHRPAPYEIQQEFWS
Sequence of Serine/threonine-protein kinase PRP4 homolog (Homo sapiens) (Q13523 whole entry): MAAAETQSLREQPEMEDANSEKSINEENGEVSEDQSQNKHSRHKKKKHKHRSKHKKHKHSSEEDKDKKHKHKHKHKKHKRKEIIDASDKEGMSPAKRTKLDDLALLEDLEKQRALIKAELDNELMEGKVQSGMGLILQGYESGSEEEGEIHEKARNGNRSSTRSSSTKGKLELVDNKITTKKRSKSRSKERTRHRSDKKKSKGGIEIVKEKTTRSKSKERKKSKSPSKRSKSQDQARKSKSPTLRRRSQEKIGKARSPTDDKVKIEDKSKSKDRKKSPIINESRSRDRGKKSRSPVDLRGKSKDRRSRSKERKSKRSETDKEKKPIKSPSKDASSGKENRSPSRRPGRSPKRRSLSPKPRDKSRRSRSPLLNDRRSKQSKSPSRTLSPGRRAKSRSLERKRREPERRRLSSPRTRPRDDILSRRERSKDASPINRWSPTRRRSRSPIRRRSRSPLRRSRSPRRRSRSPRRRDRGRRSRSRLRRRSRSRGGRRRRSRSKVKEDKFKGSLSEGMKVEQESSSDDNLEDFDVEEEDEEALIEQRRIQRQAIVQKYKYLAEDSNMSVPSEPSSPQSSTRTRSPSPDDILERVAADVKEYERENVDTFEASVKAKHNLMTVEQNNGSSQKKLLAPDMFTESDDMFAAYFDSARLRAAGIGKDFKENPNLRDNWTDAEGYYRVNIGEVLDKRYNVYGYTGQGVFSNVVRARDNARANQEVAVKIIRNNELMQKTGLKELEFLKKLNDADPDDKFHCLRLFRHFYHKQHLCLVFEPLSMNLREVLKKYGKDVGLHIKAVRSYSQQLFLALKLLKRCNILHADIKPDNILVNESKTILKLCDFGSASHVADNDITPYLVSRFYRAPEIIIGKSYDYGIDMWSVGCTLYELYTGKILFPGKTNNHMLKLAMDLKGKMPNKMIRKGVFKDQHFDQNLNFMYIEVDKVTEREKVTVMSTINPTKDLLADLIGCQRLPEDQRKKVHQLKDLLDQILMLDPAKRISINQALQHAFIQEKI

CNC(=O)c1ccccc1Oc1nc(Nc2cc(OC)c(OC)c(OC)c2)ncc1Br
inhibition [1]: 0%
fold change (FC) [2]: 0.03
fold change (FC) [3]: 0.16
fold change (FC) [4]: 1.18
fold change (FC) [5]: 0.03
fold change (FC) [6]: 0.01

CC(C)[C@H](NC(=O)c1cc(-c2cnn3cc(-c4ccc(OCCN5CCCCC5)cc4)cnc23)cs1)C(F)(F)F
inhibition [7]: 26%
fold change (FC) [8]: 0
fold change (FC) [9]: 0
fold change (FC) [10]: 0

O=C(N[C@@H](C1CC1)C(F)(F)F)c1cc(-c2cnn3cc(-c4ccc(F)cc4)cnc23)cs1
inhibition [11]: 10%
fold change (FC) [12]: 0
fold change (FC) [13]: 0
